Measured values taken from ChEMBL document CHEMBL4229327, “Chemical Approaches to Modulating Complement-Mediated Diseases” (J Med Chem, 2018).
One block for each compound: values may come before it. Peptide text beside a SMILES is read from it.

Columns and labels:
[1] = target: T1, Mannan-binding lectin serine protease 1 (Homo sapiens, UniProt P48740); test: Inhibition of MASP-1-mediated C3 deposition in human serum after 30 mins by ELISA
T1 sequence (P48740 whole entry): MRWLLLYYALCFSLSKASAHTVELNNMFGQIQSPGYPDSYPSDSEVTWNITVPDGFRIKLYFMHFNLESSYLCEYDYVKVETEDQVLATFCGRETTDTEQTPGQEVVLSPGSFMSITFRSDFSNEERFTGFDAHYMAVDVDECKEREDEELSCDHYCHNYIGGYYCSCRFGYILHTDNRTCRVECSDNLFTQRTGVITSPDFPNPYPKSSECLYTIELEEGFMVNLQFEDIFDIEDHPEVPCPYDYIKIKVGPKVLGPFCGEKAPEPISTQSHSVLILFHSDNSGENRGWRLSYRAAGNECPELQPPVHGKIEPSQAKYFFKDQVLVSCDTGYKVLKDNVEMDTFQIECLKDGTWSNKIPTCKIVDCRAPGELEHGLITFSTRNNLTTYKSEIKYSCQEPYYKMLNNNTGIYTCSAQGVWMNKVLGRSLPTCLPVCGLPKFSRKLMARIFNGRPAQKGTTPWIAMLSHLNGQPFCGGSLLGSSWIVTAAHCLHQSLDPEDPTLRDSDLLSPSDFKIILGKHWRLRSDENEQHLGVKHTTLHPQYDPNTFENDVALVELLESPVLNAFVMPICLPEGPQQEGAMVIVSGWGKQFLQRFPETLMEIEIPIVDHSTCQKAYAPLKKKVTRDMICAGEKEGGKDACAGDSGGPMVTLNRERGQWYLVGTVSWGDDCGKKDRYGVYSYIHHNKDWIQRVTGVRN

[2] = target: T2, Mannan-binding lectin serine protease 2 (Homo sapiens, UniProt O00187); test: Inhibition of MASP-2-mediated C4 deposition in human serum after 1 hr by ELISA
T2 sequence (O00187 16-444 limits assumed): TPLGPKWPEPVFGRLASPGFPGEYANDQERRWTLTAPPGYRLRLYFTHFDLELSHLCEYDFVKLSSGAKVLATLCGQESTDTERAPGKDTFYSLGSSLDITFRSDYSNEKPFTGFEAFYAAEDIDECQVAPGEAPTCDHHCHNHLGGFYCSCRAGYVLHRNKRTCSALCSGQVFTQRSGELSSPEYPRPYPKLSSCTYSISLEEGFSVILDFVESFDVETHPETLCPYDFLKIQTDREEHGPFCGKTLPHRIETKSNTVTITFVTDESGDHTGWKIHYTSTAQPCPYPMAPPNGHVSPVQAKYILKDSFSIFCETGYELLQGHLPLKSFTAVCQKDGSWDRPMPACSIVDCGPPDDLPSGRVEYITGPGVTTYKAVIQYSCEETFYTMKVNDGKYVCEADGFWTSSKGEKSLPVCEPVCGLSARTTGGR
T2 sequence (O00187 445-686 limits assumed): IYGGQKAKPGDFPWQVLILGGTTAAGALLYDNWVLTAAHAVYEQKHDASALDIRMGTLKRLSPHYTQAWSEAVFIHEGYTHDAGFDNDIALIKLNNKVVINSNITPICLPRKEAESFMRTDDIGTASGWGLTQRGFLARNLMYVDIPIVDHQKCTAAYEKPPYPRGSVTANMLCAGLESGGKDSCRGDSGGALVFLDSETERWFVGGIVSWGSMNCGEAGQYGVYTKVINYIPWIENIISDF

[3] = target: T2, Mannan-binding lectin serine protease 2; test: Inhibition of MASP-2 (unknown origin) using Z-L-LysSBzl hydrochloride as substrate preincubated for 1 hr followed by substrate addition
[4] = target: T3, C3a anaphylatoxin chemotactic receptor (Homo sapiens, UniProt Q16581); test: Agonist activity at C3aR in HMDM assessed as induction of Ca2+ release; assay type: functional
T3 sequence (Q16581 whole entry): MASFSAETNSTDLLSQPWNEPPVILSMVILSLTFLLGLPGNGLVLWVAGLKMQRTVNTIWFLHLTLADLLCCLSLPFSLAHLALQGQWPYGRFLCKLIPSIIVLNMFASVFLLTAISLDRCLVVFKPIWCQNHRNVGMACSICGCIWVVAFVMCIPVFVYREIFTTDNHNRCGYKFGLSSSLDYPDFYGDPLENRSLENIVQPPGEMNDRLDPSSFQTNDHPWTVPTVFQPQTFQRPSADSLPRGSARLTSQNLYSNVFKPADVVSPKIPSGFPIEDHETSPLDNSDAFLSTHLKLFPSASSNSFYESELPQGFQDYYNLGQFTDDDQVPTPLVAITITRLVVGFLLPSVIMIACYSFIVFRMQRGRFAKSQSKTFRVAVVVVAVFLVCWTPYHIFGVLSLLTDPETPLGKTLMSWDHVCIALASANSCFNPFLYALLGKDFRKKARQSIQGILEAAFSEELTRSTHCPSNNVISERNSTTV

[5] = target: T3, C3a anaphylatoxin chemotactic receptor; test: Displacement of 125I-C3a from recombinant human C3aR expressed in HEK293 cell membranes after 3 hrs by scintillation proximity assay
Complement factor D [6] = target: T4, Complement factor D (Homo sapiens, UniProt P00746)
T4 sequence (P00746 whole entry): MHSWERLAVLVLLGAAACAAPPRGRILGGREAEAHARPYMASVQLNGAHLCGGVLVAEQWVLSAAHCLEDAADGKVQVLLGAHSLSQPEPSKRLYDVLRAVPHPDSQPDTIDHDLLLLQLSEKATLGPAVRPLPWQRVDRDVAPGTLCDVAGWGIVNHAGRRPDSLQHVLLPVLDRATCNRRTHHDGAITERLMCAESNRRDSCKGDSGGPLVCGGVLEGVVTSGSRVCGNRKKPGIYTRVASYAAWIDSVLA
Description: Inhibition of factor D in human serum assessed as decrease in C3 deposition on PNH erythrocytes

[7] = Inhibition of factor D in […]-activated cat serum assessed as decrease in human erythrocyte lysis; details: Felis catus
[8] = Inhibition of factor D in […]-activated dog serum assessed as decrease in human erythrocyte lysis; details: Canis lupus familiaris
Complement C2 [9] = target: T5, Complement C2 (Homo sapiens, UniProt P06681); test: Inhibition of human C2-mediated C3 processing after 24 hrs by SDS-PAGE
T5 sequence (P06681 whole entry): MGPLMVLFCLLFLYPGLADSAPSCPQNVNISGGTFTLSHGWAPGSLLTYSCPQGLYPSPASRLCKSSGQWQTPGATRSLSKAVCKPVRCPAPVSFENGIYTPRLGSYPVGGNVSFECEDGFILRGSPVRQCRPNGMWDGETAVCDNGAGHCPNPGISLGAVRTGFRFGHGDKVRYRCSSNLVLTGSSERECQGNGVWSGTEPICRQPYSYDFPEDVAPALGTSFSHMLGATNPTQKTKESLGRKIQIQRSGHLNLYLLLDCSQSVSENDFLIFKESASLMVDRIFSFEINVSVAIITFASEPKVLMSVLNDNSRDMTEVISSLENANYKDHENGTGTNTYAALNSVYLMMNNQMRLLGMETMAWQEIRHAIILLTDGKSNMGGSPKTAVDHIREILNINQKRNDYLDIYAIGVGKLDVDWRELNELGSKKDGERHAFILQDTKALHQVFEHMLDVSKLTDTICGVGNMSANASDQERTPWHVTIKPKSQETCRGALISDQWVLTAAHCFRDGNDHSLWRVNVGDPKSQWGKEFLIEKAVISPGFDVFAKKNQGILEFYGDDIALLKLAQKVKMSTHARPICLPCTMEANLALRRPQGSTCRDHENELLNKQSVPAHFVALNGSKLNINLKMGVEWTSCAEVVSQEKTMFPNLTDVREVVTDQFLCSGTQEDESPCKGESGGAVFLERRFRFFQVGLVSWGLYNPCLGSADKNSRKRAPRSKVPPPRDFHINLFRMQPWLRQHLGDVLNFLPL

Complement C2 [10] = target: T5, Complement C2; test: Inhibition of C2-mediated MAC formation in human serum by ELISA
Complement C2 [11] = target: T5, Complement C2; test: Competitive/reversible inhibition of human C2 using Ac-SHLGLAR-pNA as substrate
Complement factor D [12] = target: T4, Complement factor D; test: Displacement of Cy5 from recombinant human biotin labeled factor D expressed in Escherichia coli after 2 hrs by TR-FRET assay
[13] = Half life in Wistar rat at 10 mg/kg, po or 1 mg/kg, iv; assay type: ADME, organism-based; details: in vivo
Integrin alpha-M/beta-2 [14] = target: T6, Integrin alpha-M/beta-2 (Homo sapiens, UniProt P05107+P11215); test: Antagonist activity at CR3 in carboxyfluorescein diacetate succiminidyl ester-labeled human PMN assessed as inhibition of TNF/PMA-stimulated adhesion of PMN to fibrinogen preincubated for 10 mins followed by TNF/PMA addition by fluorescence assay; assay type: protein-complex assay
T6 sequence (P05107 23-769 limits assumed, other chains not shown): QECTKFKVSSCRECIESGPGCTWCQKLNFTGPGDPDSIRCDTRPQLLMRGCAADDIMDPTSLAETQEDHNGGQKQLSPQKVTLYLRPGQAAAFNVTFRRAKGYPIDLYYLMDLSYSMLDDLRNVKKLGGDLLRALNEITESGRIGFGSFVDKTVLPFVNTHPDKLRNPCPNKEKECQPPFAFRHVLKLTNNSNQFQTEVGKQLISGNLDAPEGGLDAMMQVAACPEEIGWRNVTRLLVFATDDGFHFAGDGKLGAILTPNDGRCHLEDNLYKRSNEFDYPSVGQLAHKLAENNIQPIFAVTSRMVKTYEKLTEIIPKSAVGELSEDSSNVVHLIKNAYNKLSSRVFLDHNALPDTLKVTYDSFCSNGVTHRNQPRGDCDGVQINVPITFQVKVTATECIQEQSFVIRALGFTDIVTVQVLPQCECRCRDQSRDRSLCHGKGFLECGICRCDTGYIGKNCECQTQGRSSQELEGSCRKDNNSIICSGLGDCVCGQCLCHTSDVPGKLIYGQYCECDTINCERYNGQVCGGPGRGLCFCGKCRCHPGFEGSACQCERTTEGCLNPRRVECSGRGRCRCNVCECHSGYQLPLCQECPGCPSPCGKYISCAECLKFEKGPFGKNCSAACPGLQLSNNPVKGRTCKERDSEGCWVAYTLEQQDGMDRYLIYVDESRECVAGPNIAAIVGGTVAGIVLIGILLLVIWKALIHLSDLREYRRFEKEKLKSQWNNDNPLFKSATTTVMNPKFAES

Integrin alpha-M/beta-2 [15] = target: T6, Integrin alpha-M/beta-2; test: Inhibition of C3bi-AP binding to CR3 derived from human PMN; assay type: protein-complex assay

Structure (SMILES): N=C(N)NCCC[C@H](Nc1nccc2[nH]c(C(c3ccccc3)c3ccccc3)nc12)C(=O)O
EC50 [4]: 15 nM

Structure (SMILES): N=C(N)NCCC[C@H](NC(=O)c1cccn(Cc2ccccc2Br)c1=O)C(=O)O
IC50 [5]: 50 nM

Structure (SMILES): CC(=O)c1nn(CC(=O)N2C[C@H](F)C[C@H]2C(=O)Nc2cccc(Br)n2)c2ccc(-c3cnc(C)nc3)cc12
IC90 (Complement factor D [6]): 89 nM

Structure (SMILES): CC[n+]1c(/C=C/C=C/N2CCCc3ccccc32)sc2ccc3ccccc3c21
IC50 (Integrin alpha-M/beta-2 [14]): 2500 to 10000 nM | IC50 (Integrin alpha-M/beta-2 [15]): 140 nM

Further lines, results first:

IC50 [1]: 220 nM | IC50 [2]: 2700 nM | Ki [3]: 180 nM
Structure (SMILES): CC[C@H](C)[C@H](NC(=O)[C@H](CS)NC(=O)[C@@H](NC(=O)[C@@H]1CCCN1C(=O)[C@@H]1CCCN1C(=O)[C@H](Cc1ccc(O)cc1)NC(=O)[C@H](CO)NC(=O)[C@H](CCCNC(=N)N)NC(=O)[C@H](CO)NC(=O)[C@H](CS)NC(=O)[C@H](Cc1ccc(O)cc1)NC(=O)CN)C(C)C)C(=O)N1CCC[C@H]1C(=O)N[C@@H](CC(=O)O)C(=O)O (H-GYCSRSYPPVCIPD-OH)

IC50 [7]: 100 nM | IC50 [8]: 100 nM
Structure (SMILES): CC(=O)Oc1ccc(Cc2ccc(OC(C)=O)c(C(=O)O)c2)cc1C(=O)O

IC50 (Complement C2 [9]): 500 to 1000 nM | IC50 (Complement C2 [10]): 7300 nM | IC50 (Complement C2 [11]): 330 nM
Structure (SMILES): CC(=O)N[C@@H](CCCNC(=N)N)C(=O)N[C@@H](CC(C)C)C(=O)N[C@@H](CC(C)C)C(=O)N[C@@H](CC(C)C)C(=O)N[C@@H](C)C(=O)N[C@H](C=O)CCCNC(=N)N (Ac-RLLLAR-aldehyde)

IC50 (Complement factor D [12]): 23 nM
Structure (SMILES): Cn1cc(-c2cc(COc3ccccc3CC(=O)O)cc(-c3cccc(CC(N)=O)c3F)c2)cn1

half-life [13]: 1 to 3 h
Structure (SMILES): CCc1cccc(CC)c1-c1cc(OC(C)C)c2c(n1)CCCC2Nc1ccccc1CCO (stereo not given)
